Test results reported in patent publication US5512471A, “Process for purifying an α-D-galactosidase isozyme from Coffea beans” (The Curators of the University of Missouri, priority 1992, dated 1996).

Tests used:
[1] = system: α-D-galactosidase isozyme; test: Substrate specificity with PNP and 4-MU conjugates; type: biochemical, Coffea canephora; settings: pH 6.0
Excerpt: Analytical procedures: Protein concentration was quantitated by the method of Bradford using bovine serum albumin (BSA) as a standard (9). […] One unit of activity was defined as 1.0 μmole of substrate hydrolyzed per minute.

[2] = system: α-D-galactosidase isozyme; test: Km determination by varying the substrate concentration; type: biochemical, Coffea canephora; settings: 50 mM Na citrate + 1 mg/ml BSA, pH 6.0; mean, S.D.=0.09, N=3
Description: The pH optimum was determined by incubating aliquots of the enzyme in 40 mM Na citrate +40 mN Na H2 PO4 +1 mg/ml BSA+2.5 mM PNP-α-D-galactopyranoside, pH =2.0 to 8.0. The ionic strength optimum was determined by incubating aliquots of the enzyme in 5.0 mM Na citrate +1 mg/ml BSA +2.5 mM PNP α-D-galactopyranoside +0 to 1.0M Na Cl, pH =6.0. The Km for PNP-α-D-galactopyranoside was determined by varying the substrate concentration in 50 mM Na citrate +1 mg/ml BSA, pH =6.0. The native molecular weight of the isozyme was determined by applying a concentrated portion of the enzyme to a 1.5×45 cm Sephacryl S-200 column equilibrated in 25 mM Na citrate +200 mM NaCl, pH=6.0.

[3] = PNP conjugates 2.5 mM, % of activity on PNP-α-D-galactopyranoside
[4] = 4-MU substrates, % of activity on 4-MU-α-D-galactopyranoside

Row | RELATIVE ACTIVITY [1, 3] [%] | Km [2] [µM] | RELATIVE ACTIVITY [1, 4] [%] | Compound
1 | < 0.06 | – | – | O=[N+]([O-])c1ccc(O[C@@H]2O[C@H](CO)[C@@H](O)[C@H](O)[C@H]2O)cc1 [PNP-β-D-glucopyranoside]
2 | 100.00 | 260 | – | O=[N+]([O-])c1ccc(O[C@H]2O[C@H](CO)[C@H](O)[C@H](O)[C@H]2O)cc1 [PNP-α-D-galactopyranoside]
3 | < 0.06 | – | – | CC(=O)N[C@H]1[C@H](Oc2ccc([N+](=O)[O-])cc2)O[C@H](CO)[C@@H](O)[C@@H]1O [PNP-N-acetyl-β-D-glucosaminide]
4 | – | – | < 0.01 | CC(=O)NC1C(O)CC(Oc2ccc3c(C)cc(=O)oc3c2)(C(=O)O)OC1C(O)C(O)CO (stereo not drawn) [4-MU-N-acetyl-α-neuraminic acid]
5 | < 0.06 | – | – | CC(=O)N[C@H]1[C@@H](Oc2ccc([N+](=O)[O-])cc2)O[C@H](CO)[C@@H](O)[C@@H]1O [PNP-N-acetyl-α-D-glucosaminide]
6 | – | – | 100.00 | Cc1cc(=O)oc2cc(O[C@H]3O[C@H](CO)[C@H](O)[C@H](O)[C@H]3O)ccc12 [4-MU-α-D-galactopyranoside]
7 | < 0.06 | – | – | O=[N+]([O-])c1ccc(O[C@@H]2OC[C@H](O)[C@H](O)[C@H]2O)cc1 [PNP-α-L-arabinopyranoside]
8 | < 0.06 | – | – | C[C@@H]1O[C@H](Oc2ccc([N+](=O)[O-])cc2)[C@@H](O)[C@H](O)[C@@H]1O [PNP-β-L-fucopyranoside]
9 | < 0.06 | – | – | C[C@@H]1O[C@@H](Oc2ccc([N+](=O)[O-])cc2)[C@@H](O)[C@H](O)[C@@H]1O [PNP-α-L-fucopyranoside]
10 | < 0.06 | – | – | O=[N+]([O-])c1ccc(O[C@@H]2O[C@H](CO)[C@H](O)[C@H](O)[C@H]2O)cc1 [PNP-β-D-galactopyranoside]
11 | < 0.06 | – | – | O=[N+]([O-])c1ccc(O[C@H]2O[C@H](CO)[C@@H](O)[C@H](O)[C@H]2O)cc1 [PNP-α-D-glucopyranoside]
12 | < 0.06 | – | – | CC(=O)N[C@H]1[C@H](Oc2ccc([N+](=O)[O-])cc2)O[C@H](CO)[C@H](O)[C@@H]1O [PNP-N-acetyl-β-D-galactosaminide]
13 | < 0.06 | – | – | CC(=O)N[C@H]1[C@@H](Oc2ccc([N+](=O)[O-])cc2)O[C@H](CO)[C@H](O)[C@@H]1O [PNP-N-acetyl-α-D-galactosaminide]
